Patent US20250179000A1 (Sanford Burnham Prebys Medical Discovery Institute, priority 2021, published 2025)

Experiments:
Type in all cases: cell-based
[1] = biological target: T1, Rat mGlu2 (Rattus norvegicus, UniProt P31421); experiment: mGlu receptor in vitro assay, thallium flux through GIRK channels, rat mGlu2; settings: PAM potency with EC20 glutamate
T1 construct: expressed in transfected cells; host or cells: HEK-293 co-expressing GIRK channels
Method in brief: (§1)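 HEK-293 cells co-expressing rat mGlu2 or mGlu3 and GIRK, dye-loaded with FluoZin2-AM, compound added about 2.5 min before thallium buffer with EC20 glutamate; potency from the 5-15 s fluorescence slope, 10-point 4-parameter fit. Calcium assay at mGlu3 used TREx293 mGlu3 Gα15 cells induced with tetracycline 20 ng/mL for 20 h.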

[2] = biological target: T2, Rat mGlu3 (Rattus norvegicus, UniProt P31422); experiment: mGlu receptor in vitro assay (thallium flux through GIRK channels / calcium assay), rat mGlu3; settings: PAM potency with EC20 glutamate
T2 construct: expressed in transfected cells; host or cells: HEK-293 co-expressing GIRK channels
T2 sequence (P31422 23-879): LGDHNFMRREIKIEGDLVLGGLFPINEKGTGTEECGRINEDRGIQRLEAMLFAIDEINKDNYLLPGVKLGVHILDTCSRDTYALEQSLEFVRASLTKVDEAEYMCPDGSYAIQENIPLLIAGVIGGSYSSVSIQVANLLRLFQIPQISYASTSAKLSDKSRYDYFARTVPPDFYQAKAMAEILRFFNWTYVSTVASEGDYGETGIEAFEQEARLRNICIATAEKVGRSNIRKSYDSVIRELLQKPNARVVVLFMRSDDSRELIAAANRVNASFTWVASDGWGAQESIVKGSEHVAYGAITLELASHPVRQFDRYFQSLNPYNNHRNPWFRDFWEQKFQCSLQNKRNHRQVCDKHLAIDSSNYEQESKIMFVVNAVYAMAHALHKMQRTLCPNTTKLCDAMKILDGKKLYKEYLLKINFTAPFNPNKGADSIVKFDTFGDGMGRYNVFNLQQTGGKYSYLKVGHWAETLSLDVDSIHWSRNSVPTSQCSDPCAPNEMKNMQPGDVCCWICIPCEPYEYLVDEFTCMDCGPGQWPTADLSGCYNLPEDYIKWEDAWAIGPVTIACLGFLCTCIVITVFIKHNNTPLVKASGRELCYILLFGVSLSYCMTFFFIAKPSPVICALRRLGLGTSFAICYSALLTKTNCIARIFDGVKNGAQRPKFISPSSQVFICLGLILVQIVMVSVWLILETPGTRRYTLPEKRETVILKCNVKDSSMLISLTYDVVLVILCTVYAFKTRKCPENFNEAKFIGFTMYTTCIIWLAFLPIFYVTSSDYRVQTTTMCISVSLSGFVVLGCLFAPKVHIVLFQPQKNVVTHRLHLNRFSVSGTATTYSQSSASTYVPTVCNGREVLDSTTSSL
Method in brief: as §1

[3] = biological target: Human mGlu2 (Homo sapiens, UniProt Q14416); experiment: mGlu receptor in vitro assay, human mGlu2
Sequence of Human mGlu2 (Q14416 19-872): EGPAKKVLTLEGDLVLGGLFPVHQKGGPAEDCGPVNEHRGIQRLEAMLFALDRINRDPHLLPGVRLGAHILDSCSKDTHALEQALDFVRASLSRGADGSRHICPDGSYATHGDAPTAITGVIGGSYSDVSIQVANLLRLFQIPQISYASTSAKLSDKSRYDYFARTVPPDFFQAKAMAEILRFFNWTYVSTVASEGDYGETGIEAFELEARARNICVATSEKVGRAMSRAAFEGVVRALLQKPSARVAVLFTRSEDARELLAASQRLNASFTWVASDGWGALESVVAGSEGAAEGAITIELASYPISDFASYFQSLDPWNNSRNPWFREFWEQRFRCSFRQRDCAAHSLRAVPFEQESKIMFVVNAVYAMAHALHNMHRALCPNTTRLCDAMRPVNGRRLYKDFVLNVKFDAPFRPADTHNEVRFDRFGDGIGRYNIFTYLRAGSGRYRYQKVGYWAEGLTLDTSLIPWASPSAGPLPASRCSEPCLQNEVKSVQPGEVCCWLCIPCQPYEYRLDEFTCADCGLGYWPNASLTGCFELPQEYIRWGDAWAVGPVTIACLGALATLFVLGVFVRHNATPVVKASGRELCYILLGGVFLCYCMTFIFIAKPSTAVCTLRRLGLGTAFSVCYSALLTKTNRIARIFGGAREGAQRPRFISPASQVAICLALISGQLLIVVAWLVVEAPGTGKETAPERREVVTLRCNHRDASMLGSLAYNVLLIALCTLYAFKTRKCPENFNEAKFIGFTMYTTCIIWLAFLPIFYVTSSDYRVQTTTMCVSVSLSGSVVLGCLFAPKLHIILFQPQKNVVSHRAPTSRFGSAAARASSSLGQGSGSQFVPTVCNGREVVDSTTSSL

[4] = biological target: Human mGlu3 (Homo sapiens, UniProt Q14832); experiment: mGlu receptor in vitro assay, human mGlu3
Sequence of Human mGlu3 (Q14832 23-879): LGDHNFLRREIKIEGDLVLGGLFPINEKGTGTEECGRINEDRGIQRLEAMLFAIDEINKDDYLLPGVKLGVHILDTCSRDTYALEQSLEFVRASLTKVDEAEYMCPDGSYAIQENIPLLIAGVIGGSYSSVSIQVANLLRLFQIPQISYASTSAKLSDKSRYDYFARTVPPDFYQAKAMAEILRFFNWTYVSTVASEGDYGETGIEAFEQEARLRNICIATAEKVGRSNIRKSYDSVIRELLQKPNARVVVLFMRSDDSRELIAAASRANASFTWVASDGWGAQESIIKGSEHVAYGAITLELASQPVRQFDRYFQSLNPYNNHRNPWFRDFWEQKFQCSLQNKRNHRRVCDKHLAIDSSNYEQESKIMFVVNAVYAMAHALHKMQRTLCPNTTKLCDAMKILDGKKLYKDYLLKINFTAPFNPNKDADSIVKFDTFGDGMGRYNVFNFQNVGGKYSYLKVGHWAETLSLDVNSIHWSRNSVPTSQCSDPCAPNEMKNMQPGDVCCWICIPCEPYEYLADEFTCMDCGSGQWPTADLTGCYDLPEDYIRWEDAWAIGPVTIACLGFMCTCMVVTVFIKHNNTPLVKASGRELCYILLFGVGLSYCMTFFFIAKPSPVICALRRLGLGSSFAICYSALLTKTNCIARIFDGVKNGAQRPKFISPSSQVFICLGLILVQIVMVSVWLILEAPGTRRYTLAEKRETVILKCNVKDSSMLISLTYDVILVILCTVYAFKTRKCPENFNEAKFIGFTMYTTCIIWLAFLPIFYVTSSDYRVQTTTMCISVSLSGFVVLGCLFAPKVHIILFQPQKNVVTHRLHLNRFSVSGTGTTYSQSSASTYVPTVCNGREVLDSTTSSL

T1 sequence (P31421 19-872): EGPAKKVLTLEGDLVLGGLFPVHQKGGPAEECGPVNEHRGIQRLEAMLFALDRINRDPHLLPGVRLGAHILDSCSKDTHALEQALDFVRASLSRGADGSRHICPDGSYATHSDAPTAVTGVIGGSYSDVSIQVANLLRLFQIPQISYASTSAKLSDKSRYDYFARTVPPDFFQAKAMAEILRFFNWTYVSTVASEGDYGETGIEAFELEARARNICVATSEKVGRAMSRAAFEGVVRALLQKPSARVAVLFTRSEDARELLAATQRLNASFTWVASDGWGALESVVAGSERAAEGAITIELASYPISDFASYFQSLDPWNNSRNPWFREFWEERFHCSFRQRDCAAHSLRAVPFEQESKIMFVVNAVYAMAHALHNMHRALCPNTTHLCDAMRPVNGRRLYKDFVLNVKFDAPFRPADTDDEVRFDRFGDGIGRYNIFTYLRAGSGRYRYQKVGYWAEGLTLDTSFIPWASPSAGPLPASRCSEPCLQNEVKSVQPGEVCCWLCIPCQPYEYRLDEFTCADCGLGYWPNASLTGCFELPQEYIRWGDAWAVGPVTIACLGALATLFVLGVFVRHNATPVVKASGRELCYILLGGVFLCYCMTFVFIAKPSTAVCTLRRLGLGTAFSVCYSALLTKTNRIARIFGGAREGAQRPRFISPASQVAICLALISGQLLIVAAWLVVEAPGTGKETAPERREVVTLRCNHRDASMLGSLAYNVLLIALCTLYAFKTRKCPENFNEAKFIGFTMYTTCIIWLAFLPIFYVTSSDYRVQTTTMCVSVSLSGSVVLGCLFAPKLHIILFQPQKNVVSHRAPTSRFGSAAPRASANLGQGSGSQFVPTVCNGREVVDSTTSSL

Row | EC50 [1] | EC50 [2] | EC50 [3] | EC50 [4] | SMILES
1 | 114 nM | > 10000 nM | 52 nM | > 10000 nM | CCCC(=O)c1ccc(OCCCCCOc2cccc(C(=O)O)c2C)c(C)c1O [Example 13]
2 | 430 nM | 104 nM | 297 nM | 148 nM | COc1ccc(-c2cnc(COc3ccc(C(=O)CC(C)(C)C)c(O)c3C)cn2)cc1C(=O)O [compound 128, 5-(5-((4-(3,3-Dimethylbutanoyl)-3-hydroxy-2-methylphenoxy)methyl)pyrazin-2-yl)-2-methoxybenzoic acid]
3 | 39 nM | 427 nM | 12 nM | 414 nM | Cc1c(OCCCCCOc2ccc(C(=O)O)c(Cl)c2)ccc(C(=O)CC(C)C)c1O [Example 46, 2-Chloro-4-{5-[3-hydroxy-2-methyl-4-(3-methylbutanoyl)phenoxy]pentyloxy}benzoic acid]
4 | 198 nM | 481 nM | 54 nM | 375 nM | CCCC(=O)c1ccc(OCc2cnc(-c3cccc(C(=O)O)c3OC)cn2)c(C)c1O [compound 103, 3-{5-[(4-Butanoyl-3-hydroxy-2-methylphenoxy)methyl]pyrazin-2-yl}-2-methoxybenzoic acid]
5 | 268 nM | 247 nM | 74 nM | 79 nM | Cc1c(OCc2nc(-c3cccc(C(=O)O)c3)no2)ccc(C(=O)CC(C)(C)C)c1O [compound 133, 3-(5-((4-(3,3-Dimethylbutanoyl)-3-hydroxy-2-methylphenoxy)methyl)-1,2,4-oxadiazol-3-yl)benzoic acid]
6 | 23 nM | 70 nM | 5 nM | 15 nM | COc1ccc(C(=O)O)cc1OCCSCCOc1ccc(C(=O)CC(C)(C)C)c(O)c1C [Example 12, 3-(2-{2-[4-(3,3-Dimethylbutanoyl)-3-hydroxy-2-methylphenoxy]ethylthio}ethoxy)-4-methoxybenzoic acid]
7 | 373 nM | 134 nM | 189 nM | 140 nM | COc1ccc(C(=O)NC2CC2)cc1-c1cnc(COc2ccc(C(=O)CC(C)(C)C)c(O)c2C)cn1 [compound 127, N-Cyclopropyl-3-(5-((4-(3,3-dimethylbutanoyl)-3-hydroxy-2-methylphenoxy)methyl)pyrazin-2-yl)-4-methoxybenzamide]
8 | 73 nM | > 10000 nM | 50 nM | > 10000 nM | CCCC(=O)c1ccc(OCCOCCNc2cccc(C(=O)O)c2)c(C)c1O [Example 9, 3-({2-[2-(4-Butanoyl-3-hydroxy-2-methylphenoxy)ethoxy]ethyl}amino)benzoic acid]
9 | 16 nM | 2300 nM | 9 nM | > 30000 nM | CCCC(=O)c1ccc(OCCCCCOc2ccc(C(=O)O)cc2OC)c(C)c1O [Example 14, 4-[5-(4-Butanoyl-3-hydroxy-2-methylphenoxy)pentyloxy]-3-methoxybenzoic acid]
10 | 2160 nM | 4090 nM | 156 nM | 1620 nM | COc1ccc(C(=O)O)cc1OCCNCCOc1ccc(C(=O)CC(C)(C)C)c(O)c1C [Example 26, 3-[2-({2-[4-(3,3-Dimethylbutanoyl)-3-hydroxy-2-methylphenoxy]ethyl}amino)ethoxy]-4-methoxybenzoic acid]
11 | 106 nM | 660 nM | 133 nM | 748 nM | CCCC(=O)c1ccc(OCc2nc(-c3cccc(C(=O)O)c3)no2)c(C)c1O [compound 135, 3-(5-((4-Butyryl-3-hydroxy-2-methylphenoxy)methyl)-1,2,4-oxadiazol-3-yl)benzoic acid]
12 | 303 nM | 69 nM | 190 nM | 222 nM | COc1c(C(=O)O)cccc1-c1ccc(COc2ccc(C(=O)CC(C)(C)C)c(O)c2C)cc1 [compound 104, 3-(4-{[4-(3,3-Dimethylbutanoyl)-3-hydroxy-2-methylphenoxy]methyl}phenyl)-2-methoxybenzoic acid]
13 | 215 nM | 1030 nM | 147 nM | 634 nM | COc1ccc(C(=O)O)cc1OCCC(C)(C)CCOc1ccc(C(=O)CC(C)(C)C)c(O)c1C [Example 29, 3-{5-[4-(3,3-Dimethylbutanoyl)-3-hydroxy-2-methylphenoxy]-3,3-dimethylpentyloxy}-4-methoxybenzoic acid]
14 | 355 nM | 1520 nM | 153 nM | 768 nM | Cc1c(OCCCCCOc2ccc(C(=O)CC(C)(C)C)c(O)c2C)cccc1C(=O)O [Example 17, 3-{5-[4-(3,3-Dimethylbutanoyl)-3-hydroxy-2-methylphenoxy]pentyloxy}-2-methylbenzoic acid]
15 | 19 nM | 920 nM | 6 nM | 708 nM | [2H]C([2H])(CCCC([2H])([2H])Oc1ccc(C(=O)CCC)c(O)c1C)Oc1ccc(C(=O)O)c(Cl)c1 [Example 53, 4-((5-(4-Butyryl-3-hydroxy-2-methylphenoxy)pentyl-1,1,5,5-d4)oxy)-2-chlorobenzoic acid]
16 | 288 nM | 818 nM | 165 nM | 472 nM | COc1ccc(C(=O)O)cc1OCCCCCCOc1ccc(C(=O)CC(C)(C)C)c(O)c1C [Example 19, 3-{6-[4-(3,3-Dimethylbutanoyl)-3-hydroxy-2-methylphenoxy]hexyloxy}-4-methoxybenzoic acid]
17 | 22 nM | 2380 nM | 9 nM | > 30000 nM | [2H]C([2H])(CCCC([2H])([2H])Oc1ccc(C(=O)CCC)c(O)c1C)Oc1ccc(C(=O)O)cc1OC [Example 51, 4-((5-(4-Butyryl-3-hydroxy-2-methylphenoxy)pentyl-1,1,5,5-d4)oxy)-3-methoxybenzoic acid]
18 | 92 nM | 39 nM | 15 nM | 16 nM | COc1ccc(C(=O)O)cc1OCC#CCOc1ccc(C(=O)CC(C)(C)C)c(O)c1C [Example 10, 3-{4-[4-(3,3-Dimethylbutanoyl)-3-hydroxy-2-methylphenoxy]but-2-ynyloxy}-4-methoxybenzoic acid]
19 | 93 nM | 493 nM | 54 nM | 159 nM | COc1c(C(=O)O)cccc1-c1cccc(COc2ccc(C(=O)CC(C)(C)C)c(O)c2C)c1 [compound 102, 3-(3-{[4-(3,3-Dimethylbutanoyl)-3-hydroxy-2-methylphenoxy]methyl}phenyl)-2-methoxybenzoic acid]
20 | 44 nM | 1030 nM | 20 nM | 1130 nM | CCCC(=O)c1ccc(OC/C=C/COc2ccc(C(=O)O)c(Cl)c2)c(C)c1O [Example 44, 4-[(2E)-4-(4-Butanoyl-3-hydroxy-2-methylphenoxy)but-2-enyloxy]-2-chlorobenzoic acid]
21 | 137 nM | 578 nM | 60 nM | 311 nM | Cc1c(OCCSCCOc2ccc(C(=O)CC(C)(C)C)c(O)c2C)cccc1C(=O)O [Example 25]
22 | 56 nM | > 10000 nM | 28 nM | > 30000 nM | CCCC(=O)c1ccc(OCCSCCOc2cccc(C(=O)O)c2C)c(C)c1O [Example 16, 3-{2-[2-(4-Butanoyl-3-hydroxy-2-methylphenoxy)ethylthio]ethoxy}-2-methylbenzoic acid]
23 | 441 nM | > 30000 nM | 100 nM | > 10000 nM | Cc1c(OCOc2ccc(C(=O)CC(C)(C)C)c(O)c2C)cccc1C(=O)O [compound 94, 3-{[4-(3,3-Dimethylbutanoyl)-3-hydroxy-2-methylphenoxy]methoxy}-2-methylbenzoic acid]
24 | 174 nM | > 10000 nM | 66 nM | > 10000 nM | [2H]C([2H])(CCCC([2H])([2H])Oc1ccc(C(=O)CCC)c(O)c1C)Oc1cccc(C(=O)O)c1C [Example 35]
25 | 326 nM | 1490 nM | 163 nM | 966 nM | Cc1c(OCCCCSc2cccc(C(=O)O)c2)ccc(C(=O)CC(C)C)c1O [compound 81, 3-((4-(3-Hydroxy-2-methyl-4-(3-methylbutanoyl)phenoxy)butyl)thio)benzoic acid]

Row | SMILES | EC50 [1] | EC50 [2] | EC50 [3] | EC50 [4]
26 | Cc1c(OCCCCOc2ccc(C(=O)O)c(F)c2)ccc(C(=O)CC(C)C)c1O [compound 100, 2-Fluoro-4-{4-[3-hydroxy-2-methyl-4-(3-methylbutanoyl)phenoxy]butoxy}benzoic acid] | 79 nM | 732 nM | 15 nM | 773 nM
27 | COc1ccc(C(=O)O)cc1OCCCCOc1ccc(C(=O)c2ccc(F)cc2)c(O)c1C [compound 65, 3-(4-(4-(4-Fluorobenzoyl)-3-hydroxy-2-methylphenoxy)butoxy)-4-methoxybenzoic acid] | 1150 nM | 3030 nM | 143 nM | 342 nM
28 | COc1ccc(C(=O)O)cc1OCCC(C)COc1ccc(C(=O)CC(C)(C)C)c(O)c1C (centres unmarked) [Example 33, 3-{4-[4-(3,3-Dimethylbutanoyl)-3-hydroxy-2-methylphenoxy]-3-methylbutoxy}-4-methoxybenzoic acid] | 217 nM | 197 nM | 132 nM | 195 nM
29 | COc1ccc(C(=O)O)cc1OCCCCSc1ccc(C(=O)CC(C)(C)C)c(O)c1C [compound 84, 3-{4-[4-(3,3-Dimethylbutanoyl)-3-hydroxy-2-methylphenylthio]butoxy}-4-methoxybenzoic acid] | 382 nM | 953 nM | 126 nM | 340 nM
